Test results: patent US9029359B2, “Heteroaryl Btk inhibitors” (Biogen Idec MA, Inc., priority 2009, dated 2015)

Biological target: T1, BTK (Homo sapiens, UniProt Q06187)
T1 construct: purchased Upstate 14-552
Assay: In vitro BTK kinase assay: BTK-POLYGAT-LS ASSAY
Format: biochemical
Details: ATP 10 uM
In short: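 BTK phosphorylation of polyGAT (100 nM final) with ATP at 10 μM final, 10 mM Tris-HCl pH 7.5 kinase buffer, quenched by EDTA after 30 min. Potency given as IC50.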

T1 sequence (Q06187 whole entry): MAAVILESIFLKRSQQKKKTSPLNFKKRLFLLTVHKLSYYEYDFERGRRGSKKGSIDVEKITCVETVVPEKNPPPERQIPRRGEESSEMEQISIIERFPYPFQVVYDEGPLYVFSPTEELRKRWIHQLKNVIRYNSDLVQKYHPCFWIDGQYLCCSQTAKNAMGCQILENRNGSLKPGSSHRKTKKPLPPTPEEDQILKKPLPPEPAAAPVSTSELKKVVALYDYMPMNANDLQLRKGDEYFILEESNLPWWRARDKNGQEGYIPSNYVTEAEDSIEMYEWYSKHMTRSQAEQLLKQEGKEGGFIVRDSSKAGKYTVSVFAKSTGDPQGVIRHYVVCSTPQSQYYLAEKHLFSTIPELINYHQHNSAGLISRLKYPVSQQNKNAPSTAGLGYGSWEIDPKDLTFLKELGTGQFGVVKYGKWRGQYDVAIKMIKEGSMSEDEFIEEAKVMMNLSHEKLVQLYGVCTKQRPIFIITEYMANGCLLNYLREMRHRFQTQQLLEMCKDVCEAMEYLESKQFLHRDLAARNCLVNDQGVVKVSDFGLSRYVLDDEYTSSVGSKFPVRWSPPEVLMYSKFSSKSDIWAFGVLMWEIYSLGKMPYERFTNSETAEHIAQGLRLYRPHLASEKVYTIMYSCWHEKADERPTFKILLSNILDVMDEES

Compound	IC50 [nM]
Cc1cccc(NCC(=O)NC2CCCN(c3ncnc4[nH]ccc34)C2)c1 (stereo not drawn) [Example 31, (N-(1-(7H-pyrrolo[2,3-d]pyrimidin-4-yl)piperidin-3-yl)-2-(m-tolylamino)acetamide)]	100 to 999
CCOc1ccc(OCC)c(NCC(=O)N[C@@H]2CCCN(c3ncnc4[nH]ccc34)C2)c1 [Example 414]	1000 to 10000
C[C@@H](O)[C@@H](Nc1cc(F)cc(Cl)c1)C(=O)N[C@@H]1CCCN(c2ncnc3[nH]ncc23)C1 [Example 171]	< 100
O=C(NC1CCCCN(c2ncnc3[nH]ncc23)C1)[C@H](Nc1cc(Cl)cc(Cl)c1)C1CC1 (stereo partly drawn) [Example 364]	< 100
O=C(CNc1ccccc1)N[C@H]1CCN(c2ncnc3[nH]ccc23)C1 [Example 359]	> 10000
Cc1cc(C)cc(NCC(=O)N[C@@H]2CCCN(c3ncnc4[nH]ccc34)C2)c1 [Example 282]	100 to 999
CC[C@@H](C)[C@@H](Nc1cc(F)cc(Cl)c1)C(=O)N[C@@H]1CCCN(c2ncnc3[nH]ncc23)C1 [Example 180]	< 100
O=C(CNc1cc(C(F)(F)F)cc(C(F)(F)F)c1)N[C@@H]1CCCN(c2ncnc3[nH]ccc23)C1 [Example 308]	100 to 999
O=C(CNc1ccccc1F)NC1CCCN(c2ncnc3[nH]ccc23)C1 (stereo not drawn) [Example 23, (N-(1-(7H-pyrrolo[2,3-d]pyrimidin-4-yl)piperidin-3-yl)-2-(2-fluorophenylamino)acetamide)]	100 to 999
CCNc1cc(N2CCC[C@@H](NC(=O)CNc3cc(Cl)cc(Cl)c3)C2)ncn1 [Example 143, (R)-2-(3,5-dichlorophenylamino)-N-(1-(6-(ethylamino)pyrimidin-4-yl)piperidin-3-yl)acetamide]	1000 to 10000
O=C(CNc1ccccc1)NC1CCCN(c2ncnc3[nH]cnc23)C1 (stereo not drawn) [Example 464]	> 10000
CCC[C@@H](Nc1cc(F)cc(Cl)c1)C(=O)N[C@@H]1CCCN(c2ncnc3[nH]ncc23)C1 [Example 168]	< 100
COc1ccc(C)cc1NCC(=O)N[C@@H]1CCCN(c2ncnc3[nH]ccc23)C1 [Example 270]	< 100
O=C(CNc1ccn(-c2ccccc2)n1)NC1CCCN(c2ncnc3[nH]ccc23)C1 (stereo not drawn) [Example 79, (N-(1-(7H-pyrrolo[2,3-d]pyrimidin-4-yl)piperidin-3-yl)-2-(1-phenyl-1H-pyrazol-3-ylamino)acetamide)]	> 10000
CN1CCN(c2cccc(NCC(=O)NC3CCCN(c4ncnc5[nH]ccc45)C3)c2)CC1 (stereo not drawn) [Example 343]	> 10000
O=C(N[C@@H]1CCCN(c2ncnc3[nH]ccc23)C1)C(CC(F)(F)F)Nc1ccccc1 (stereo partly drawn) [Example 123, (N—((R)-1-(7H-pyrrolo[2,3-d]pyrimidin-4-yl)piperidin-3-yl)-4,4,4-trifluoro-2-(phenylamino)butanamide)]	1000 to 10000
O=C(CNc1cccc(N2CCCC2)c1)N[C@@H]1CCCN(c2ncnc3[nH]ccc23)C1 [Example 301]	100 to 999
O=C(CNc1cccc(F)c1F)NC1CCCN(c2ncnc3[nH]ccc23)C1 (stereo not drawn) [Example 71, (N-(1-(7H-pyrrolo[2,3-d]pyrimidin-4-yl)piperidin-3-yl)-2-(2,3-difluorophenylamino)acetamide)]	100 to 999
O=C(CNc1ccccc1Sc1ccccc1)N[C@@H]1CCCN(c2ncnc3[nH]ccc23)C1 [Example 194]	< 100
CC(C)c1ccccc1N[C@H](C)C(=O)N[C@@H]1CCCN(c2ncnc3[nH]ccc23)C1 [Example 269]	100 to 999
CC(C)[C@@H](Nc1cccc(Cl)c1)C(=O)N[C@@H]1CCCN(c2ncnc3[nH]ccc23)C1 [Example 112, (R)—N—((R)-1-(7H-pyrrolo[2,3-d]pyrimidin-4-yl)piperidin-3-yl)-2-(3-chlorophenylamino)-3-methylbutanamide]	< 100
Cc1cccc(Cl)c1NCC(=O)N[C@@H]1CCCN(c2ncnc3[nH]ccc23)C1 [Example 407]	1000 to 10000
O=C(CNc1cc(F)ccc1F)N[C@@H]1CCCN(c2ncnc3[nH]ccc23)C1 [Example 446]	100 to 999
CC(=O)Nc1cc(N2CCC[C@@H](NC(=O)CNc3cc(Cl)cc(Cl)c3)C2)ncn1 [Example 141, (R)—N-(1-(6-acetamidopyrimidin-4-yl)piperidin-3-yl)-2-(3,5-dichlorophenylamino)acetamide]	1000 to 10000
CCC[C@@H](Nc1cccc(Cl)c1)C(=O)N[C@@H]1CCCN(c2ncnc3[nH]ncc23)C1 [Example 169]	< 100
N#Cc1c(F)cccc1NCC(=O)N[C@@H]1CCCN(c2ncnc3[nH]ccc23)C1 [Example 409]	1000 to 10000

Compound	IC50 [nM]
C[C@H](O)[C@@H](Nc1cc(Cl)cc(Cl)c1)C(=O)N[C@@H]1CCCN(c2ncnc3[nH]ccc23)C1 [Example 181]	< 100
CC[C@H](C)[C@@H](Nc1cc(F)cc(Cl)c1)C(=O)N[C@H]1CN(c2ncnc3[nH]ncc23)CC[C@@H]1C [Example 365]	< 100
Cn1ccc2c(N3CCC[C@@H](NC(=O)[C@H](Nc4cc(F)cc(Cl)c4)C4CC4)C3)ncnc21 [Example 136, (R)-2-(3-chloro-5-fluorophenylamino)-2-cyclopropyl-N—((R)-1-(7-methyl-7H-pyrrolo[2,3-d]pyrimidin-4-yl)piperidin-3-yl)acetamide]	100 to 999
O=C(CNc1cccc(Cl)c1)N[C@@H]1CCCN(c2ncnc3[nH]ncc23)C1 [Example 247]	< 100
Nc1ncnc(N2CCC[C@@H](NC(=O)CNc3cc(Cl)cc(Cl)c3)C2)c1CCCO [Example 320]	100 to 999
N#Cc1ccccc1NCC(=O)NC1CCCN(c2ncnc3[nH]ccc23)C1 (stereo not drawn) [Example 66, (N-(1-(7H-pyrrolo[2,3-d]pyrimidin-4-yl)piperidin-3-yl)-2-(2-cyanophenylamino)acetamide)]	1000 to 10000
CCc1cccc(C)c1NCC(=O)N[C@@H]1CCCN(c2ncnc3[nH]ccc23)C1 [Example 403]	1000 to 10000
O=C(CNc1ccccc1C(=O)N1CCCCC1)N[C@@H]1CCCN(c2ncnc3[nH]ccc23)C1 [Example 253]	100 to 999
CC(C)(C)c1ccccc1NCC(=O)N[C@@H]1CCCN(c2ncnc3[nH]ccc23)C1 [Example 416]	1000 to 10000
O=C(CNc1ccccc1Sc1ccccc1)N[C@@H]1CCCN(c2ncnc3[nH]ncc23)C1 [Example 167]	< 100
C[C@@H](O)[C@@H](Nc1cc(F)cc(Cl)c1)C(=O)N[C@@H]1CCCN(c2ncnc3[nH]ccc23)C1 [Example 408]	1000 to 10000
CCN(CC)S(=O)(=O)c1ccccc1NCC(=O)N[C@@H]1CCCN(c2ncnc3[nH]ccc23)C1 [Example 208]	< 100
O=C(CNc1cccc(-c2nnn[nH]2)c1)N[C@@H]1CCCN(c2ncnc3[nH]ccc23)C1 [Example 400]	1000 to 10000
O=C(CNc1cc(F)cc(Cl)c1)N[C@@H]1CCCN(c2ncnc3[nH]ncc23)C1 [Example 385]	< 100
CC(C)(C)[C@@H](Nc1cccc(Cl)c1)C(=O)N[C@@H]1CCCN(c2ncnc3[nH]ccc23)C1 [Example 255]	< 100
Cc1cc(NCC(=O)N[C@@H]2CCCN(c3ncnc4[nH]ccc34)C2)cc(OC(F)(F)F)c1 [Example 382]	< 100
O=C(CNc1cc(F)cc(C(F)(F)F)c1)NC1CCCN(c2ncnc3[nH]ccc23)C1 (stereo not drawn) [Example 63, (N-(1-(7H-pyrrolo[2,3-d]pyrimidin-4-yl)piperidin-3-yl)-2-(3-fluoro-5-(trifluoromethyl)phenylamino)acetamide)]	< 100
O=C(CNC(=O)c1ccccc1)NC1CCCN(c2ncnc3[nH]ccc23)C1 (stereo not drawn) [Example 3, (N-(2-(1-(7H-pyrrolo[2,3-d]pyrimidin-4-yl)piperidin-3-ylamino)-2-oxoethyl)benzamide)]	100 to 999
O=C(CNC1CCCc2ccccc21)NC1CCCN(c2ncnc3[nH]ccc23)C1 (stereo not drawn) [Example 356]	> 10000
O=C(CNc1ccc(F)cc1Cl)N[C@@H]1CCCN(c2ncnc3[nH]ccc23)C1 [Example 417]	100 to 999
O=C(CNC(=O)c1ccc2ccccc2c1)NC1CCCN(c2ncnc3[nH]ccc23)C1 (stereo not drawn) [Example 98]	100 to 999
CC(C)CCSc1ccccc1NCC(=O)N[C@@H]1CCCN(c2ncnc3[nH]ccc23)C1 [Example 188]	< 100
O=C(CNc1cccc2ccccc12)N[C@@H]1CCCN(c2ncnc3[nH]ccc23)C1 [Example 274]	100 to 999
CCC[C@@H](Nc1ccccc1C(C)C)C(=O)N[C@@H]1CCCN(c2ncnc3[nH]ncc23)C1 [Example 376]	100 to 999
O=C(O)Cc1cccc(NCC(=O)N[C@@H]2CCCN(c3ncnc4[nH]ccc34)C2)c1 [Example 389]	1000 to 10000
